One may read the LD50 as the dose expected to kill half of the subjects tested. Read a low LD50 as a more toxic substance. The ED50 is the midpoint of the dose-response relation.

From patent US4006226A, “Anticonvulsant diphenylsilanes” (priority 1976, dated 1977) come the findings set out here.

Each structure is given as a SMILES string.

Data set [1] is described as follows: LD50, single dose in sesame oil, 14 days observation. Conditions: mouse, in vivo, po, dead after 14 days. Further details: species or system male Carworth mice. Here is the method: (§1) The modified (100 Hz, 0.1 sec., 150 volt) maximal electroshock test was used to determine the anticonvulsant activity of several hydrolyzable silanes. Male Carworth mice were used as the test animal. All of the compounds were administered orally in a sesame oil carrier. […] The effective amount (ED50) for the compounds at three different time intervals after dosing was determined as previously described.
The LD50 of certain silanes was determined by administering a single dose of the silane in sesame oil to groups of the male mice.

Data set [2] deals with maximal electroshock. Put plainly: Modified maximal electroshock test (100 Hz, 0.1 sec., 150 volt) of hydrolyzable silanes, oral. The class given is in vivo, male Carworth mice. Conditions: for ED50: Mus musculus, read-out: Maximal Electroshock ED50 (95% C.I.); for ED50 / Maximal Electroshock ED50 (95% C.I.): sesame oil; for anticonvulsant activity (in words): maximal electroshock. How it is done:
as §1

For data set [3], the system named is idiopathic epilepsy, grand mal seizures of the clonic type. Put plainly: Control of seizures in a dog with idiopathic epilepsy. The format is in vivo, dog (German Shepard). How it is done: A young adult dog (German Shepard) was diagnosed as having idiopathic epilepsy after having grand mal seizures of the clonic type.
After five days of dosing, the same amount was administered orally in 250 mg. capsules for a period of 10 days.

The subject of data set [4] is maximal electroshock. Put plainly: Modified maximal electroshock, oral dosing via gastric intubation in sesame oil. The format is in vivo, mice. Conditions: Mus musculus. Here is the method:
(§2) Mice were also dosed with a similar solution of diphenylsilanediol but by intravenous administration. The ED50 was determined to be 10 mg./kg. with a 5 minute peak time by a modified maximal electroshock technique in which stimulus was delivered at 100 Hz for 0.1 second at 150 volts.
Oral dosing of mice via gastric intubation with the diphenylsilanediol suspended in sesame oil solution was also performed. Maximal electroshock (modified as described above) was again used to determine the amount necessary to provide an effective dose (ED50) at various time intervals after dosing.
Background: In the maximal electroshock model the usual endpoint is tonic extension of the hind limbs.

Data set [5] can be described thus: Acute toxicity (LD50), i.p. Conditions: mouse, in vivo, ip, mice, freshly prepared solution. Here is the method: (§3) (ED99) to be 30 minutes after dosing, the half time of the effect to be about four hours, with some measurable anticonvulsant activity being noted up to 10 hours. The toxicity (LD50) of this silane solution (as freshly prepared) in mice, administered i.p., was determined to be 2500 mg./kg.

Data set [6] relates to strychnine-induced seizures. Put plainly: Strychnine-induced seizure test (method of Everett and Richards). The class given is in vivo, mice (female Swiss Webster). Conditions: Mus musculus, ip, 0.5 h. How it is done:
(§4) Diphenylsilanediol was also tested to determine its effectiveness against chemically-induced seizures. Pentylenetetrazol and strychnine were the convulsant compounds used. Pentylenetetrazol testing was performed in accordance with Swinyard's method as described in J. Am. Pharm. Assoc. 38:201, 1949, while styrchnine tests were made by the method of Everett and Richards as described in J. Pharm. Exp. Ther. 81:402, 1944.
(§5) The silane (in 0.5% aqueous methylcellulose) was administered i.p. to groups of 6 mice (female Swiss Webster) at doses of 10, 30, 100 and 300 mg./kg. The silane solution was administered 30 minutes before injection with one of the convulsant drugs. The end point for scoring effectiveness was the absence of clonic seizures during the 30 minute period subsequent to administration of the convulsant -- this same criterion was utilized in conducting the strychnine tests. In both tests, effective amounts (ED50) of the silane were equivalent with the pentylenetetrazol-induced convulsion requiring 58 mg./kg. and the styrchnine tests showing 60 mg./kg. as the ED50.

Data set [7] has as its system tonic extension of the hind limbs. Put plainly: Electroshock test (60 Hz A.C., 0.2 second, 50 milliamp), i.p. dosing. The format is in vivo, mice (female Swiss Webster). Here is the method:
The electroshock test procedure was used to determine anticonvulsant activity of diphenylsilanediol. Adult female mice (Swiss Webster strain) were utilized as test animals. […] Seizure protection was scored as inhibition of tonic extension. Groups of mice (six/group) were dosed interperitonially with varying amounts of diphenylsilanediol in a 0.5% methylcellulose solution in distilled water. The dosages ranged from 10 to 100 mg./kg. and the electroshock was applied 30 minutes after dosing.
as §3

Data set [8] relates to maximal electroshock. Put plainly: Modified maximal electroshock (100 Hz, 0.1 second, 150 volts), intravenous dosing. The format is in vivo, mice. Here is the method:
as §2

Data set [9] relates to Pentylenetetrazol-induced clonic seizures. Put plainly: Pentylenetetrazol-induced seizure test (Swinyard's method). The class given is in vivo, mice (female Swiss Webster). The note with it: Mus musculus, ip, 0.5 h; i.p., 30 minutes before pentylenetetrazol; absence of clonic seizures. Here is the method:
as §4, §5

[10] abbreviates: after cessation of 10 mg./kg. oral dose twice daily.
Where [11] appears, read: after discontinuation of 500 mg. regimen.

Take `CO[Si](OC)(c1ccccc1)c1ccccc1` [.phi.2 Si(OCH3)2]: the median lethal dose (LD50) at 336 h in data set [1] came to 1060 mg/kg. The ED50 turned out to be 39 mg/kg in the data set on maximal electroshock [2] (2 hrs. after dosing), 26 mg/kg in the data set on maximal electroshock [2] (4 hrs. after dosing) and 52 mg/kg with maximal electroshock [2] (6 hrs. after dosing).

For the compound `CC(=O)O[Si](OC(C)=O)(c1ccccc1)c1ccccc1`, the ED50 with maximal electroshock [2] (2 hrs. after dosing) came out at 43 mg/kg; in the data set on maximal electroshock [2] (4 hrs. after dosing) it was 11 mg/kg; in the data set with maximal electroshock [2] (6 hrs. after dosing) it was 50 mg/kg.

`c1ccc([SiH2]c2ccccc2)cc1` [.phi.2 SiH2] gave an LD50 at 336 h in data set [1] of 924 mg/kg. For the same compound, the 50% effective dose (ED50) in the data set with maximal electroshock [2] (2 hrs. after dosing) amounted to 28 mg/kg; with maximal electroshock [2] (4 hrs. after dosing), 25 mg/kg; in the data set with maximal electroshock [2] (6 hrs. after dosing), 28 mg/kg.

Take `CCO[SiH](c1ccccc1)c1ccccc1`: the results for the ED50 in the data set on maximal electroshock [2] (2 hrs. after dosing), with maximal electroshock [2] (4 hrs. after dosing) and in the data set with maximal electroshock [2] (6 hrs. after dosing) were 22 mg/kg, 21 mg/kg and 46 mg/kg, respectively.

The compound `CC(C)O[Si](OC(C)C)(c1ccccc1)c1ccccc1` [.phi.2 Si(Oi-C3 H7)2] displayed a 50% lethal dose (LD50) at 336 h in data set [1] of 990 mg/kg. The median effective dose (ED50) with maximal electroshock [2] (4 hrs. after dosing) was found to be 99 mg/kg; in the data set with maximal electroshock [2] (6 hrs. after dosing) it was 66 mg/kg. For the same compound, the “Maximal Electroshock ED50 (95% C.I.)” value in the data set on maximal electroshock [2] (2 hrs. after dosing) is recorded as “no protection”.

In data set [1], `CCCCO[Si](OCCCC)(c1ccccc1)c1ccccc1` [.phi.2 Si(On-C4 H9)2, diphenyl-di-n-butoxysilane, reference compound] came in with a median lethal dose (LD50) at 336 h of 5300 mg/kg. Further, the ED50 in the data set with maximal electroshock [2] (4 hrs. after dosing) and in the data set on maximal electroshock [2] (6 hrs. after dosing) was 1000 mg/kg in each case. Besides, the “anticonvulsant activity (in words)” value with maximal electroshock [2] is “no observed activity”. Moreover, in the data set on maximal electroshock [2] (2 hrs. after dosing), the “Maximal Electroshock ED50 (95% C.I.)” value was “no protection”.

In data set [1], `CCCO[Si](OCCC)(c1ccccc1)c1ccccc1` [.phi.2 Si(On-C3 H7)2] displayed an LD50 at 336 h of 1000 mg/kg. Also, the ED50 with maximal electroshock [2] (4 hrs. after dosing) came to 89 mg/kg; in the data set on maximal electroshock [2] (6 hrs. after dosing) it was 32 mg/kg. For the same compound, the “Maximal Electroshock ED50 (95% C.I.)” value in the data set with maximal electroshock [2] (2 hrs. after dosing) is “no protection”.

As for `N[Si](N)(c1ccccc1)c1ccccc1` [.phi.2 Si(NH2)2], the 50% effective dose (ED50) in the data set on maximal electroshock [2] (2 hrs. after dosing) stood at 56 mg/kg; with maximal electroshock [2] (4 hrs. after dosing), 68 mg/kg; with maximal electroshock [2] (6 hrs. after dosing), 100 mg/kg.

As for `O[Si](O[Si](O)(c1ccccc1)c1ccccc1)(c1ccccc1)c1ccccc1` [reference compound], the ED50 in the data set with maximal electroshock [2] (2 hrs. after dosing), with maximal electroshock [2] (4 hrs. after dosing) and in the data set with maximal electroshock [2] (6 hrs. after dosing) was 1000 mg/kg throughout. Also, the “anticonvulsant activity (in words)” value with maximal electroshock [2] is “no anticonvulsant activity”.

As to `CN(C)[Si](c1ccccc1)(c1ccccc1)N(C)C` [.phi.2 Si[N(CH3)2]2], the 50% effective dose (ED50) in the data set with maximal electroshock [2] (2 hrs. after dosing) turned out to be 50 mg/kg; in the data set with maximal electroshock [2] (4 hrs. after dosing), 50 mg/kg; with maximal electroshock [2] (6 hrs. after dosing), 56 mg/kg.

Regarding `O[Si](O)(c1ccccc1)c1ccccc1` [.phi.2 Si(ONa)2], the results for the ED50 in the data set with maximal electroshock [2] (2 hrs. after dosing), in the data set with maximal electroshock [2] (4 hrs. after dosing) and with maximal electroshock [2] (6 hrs. after dosing) were 37 mg/kg, 61 mg/kg and 90 mg/kg, respectively.

As to `CCCCS[Si](SCCCC)(c1ccccc1)c1ccccc1` [.phi.2 Si(SC4 H9)2], the median effective dose (ED50) in the data set on maximal electroshock [2] (2 hrs. after dosing) stood at 290 mg/kg; in the data set with maximal electroshock [2] (4 hrs. after dosing) it was 65 mg/kg; in the data set on maximal electroshock [2] (6 hrs. after dosing), 65 mg/kg.

With `CCN(CC)CCO[Si](OCCN(CC)CC)(c1ccccc1)c1ccccc1` [.phi.2 Si[OCH2 CH2 N(C2 H5)2]2], the 50% effective dose (ED50) is 52 mg/kg in the data set with maximal electroshock [2] (2 hrs. after dosing), 84 mg/kg in the data set with maximal electroshock [2] (4 hrs. after dosing) and 168 mg/kg in the data set on maximal electroshock [2] (6 hrs. after dosing).

Consider `O[Si](O)(c1ccccc1)c1ccccc1` [diphenylsilanediol], for which the control of seizures result in data set [3] (500 mg. intramuscularly twice per day) is on record as “effective in controlling seizures”. Further, in data set [3] (500 mg. twice per day, 5 days intramuscular then 10 days oral (250 mg. capsules)), the “seizures during 15 day period” value is on record as “did not experience seizures”. In data set [3] (setting [10]), this compound came in with a first seizure postdose of 30 h. The “interval of seizures after cessation” value in data set [3] (setting [10]) was “three”. Moreover, the “first seizure after the last dose” value in data set [3] (setting [11]) stood at 39 h. Besides, the “interval of seizures after discontinuation” value in data set [3] (setting [11]) is recorded as “about four”. Besides, the elimination of seizures result in data set [3] (one-half the previous dosage, 10 mg./kg. orally twice daily, 10 days) was “effective in eliminating seizures”. For the same compound, the 50% effective dose (ED50) in the data set with maximal electroshock [4] (2 hrs. after dosing) came to 25 mg/kg; in the data set with maximal electroshock [4] (4 hrs. after dosing) it was 37 mg/kg; with maximal electroshock [4] (6 hrs. after dosing) it was 60 mg/kg; in [6], 60 mg/kg; in data set [7] (Mus musculus, ip, 0.5 h, 0.5% methylcellulose, electroshock 30 minutes after dosing, read-out: effective dose to prevent convulsions in half the animals (ED50)) it was 20 mg/kg; in the data set with maximal electroshock [8] (Mus musculus, 5 min), 10 mg/kg. In data set [9], the ED50 was 58 mg/kg. The same compound came in with an LD50 in data set [5] of 2500 mg/kg. In addition, the “half time of the effect” value in [7] (25 mg./kg. (ED99)) is reported as “about four”. In data set [7] (25 mg./kg. (ED99)), the “peak time of the anticonvulsant effect” value amounted to 30 min. For the same compound, the “some measurable anticonvulsant activity noted up to” value in data set [7] (25 mg./kg. (ED99)) is “up to 10 hours”. This compound came in with an ED99 in data set [7] (Mus musculus, ip, 0.5 h) of 25 mg/kg. In addition, in the data set on maximal electroshock [8], the peak time was 5 min.

In data set [1], `CCO[Si](OCC)(c1ccccc1)c1ccccc1` [.phi.2 Si(OC2 H5)2] showed an LD50 at 336 h of 1720 mg/kg. Further, the ED50 is 37 mg/kg in the data set with maximal electroshock [2] (2 hrs. after dosing), 50 mg/kg in the data set on maximal electroshock [2] (4 hrs. after dosing) and 22 mg/kg with maximal electroshock [2] (6 hrs. after dosing).

For `CN[Si](NC)(c1ccccc1)c1ccccc1`, the ED50 came out at 68 mg/kg in the data set with maximal electroshock [2] (2 hrs. after dosing), 70 mg/kg with maximal electroshock [2] (4 hrs. after dosing) and 153 mg/kg in the data set on maximal electroshock [2] (6 hrs. after dosing).
